Key:
Hepatotoxicity [1] = tested on: Hepatotoxicity;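 on HepSE cirrhosis: cirrhosis hepatic side effect score taken from the DILIps (drug-induced liver injury prediction) training set; call rule not given here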;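 on HepSE elevated liver function tests: hepatic side effect score for raised liver function tests, as recorded in the DILIps training set used for predicting drug-induced liver injury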;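 on HepSE hepatic necrosis: score of hepatic side effects for hepatic necrosis, drawn from the training data of DILIps, a prediction system for drug-induced liver injury; call rule not given here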;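 on HepSE jaundice: Jaundice-related hepatic side-effect score drawn from the training data of the DILIps (drug-induced liver injury prediction system); call rule not given here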; on HepSE liver disease: call rule not given here;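 on HepSE liver fatty: hepatic side effect score for fatty liver, taken from the DILIps training set for predicting drug-induced liver injury; call rule not given here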;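 on HepSE liver function tests abnormal: hepatic side effect score taken from the DILIps (drug-induced liver injury prediction system) training data, here covering abnormal liver function test findings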
Hepatotoxicity [2] = tested on: Hepatotoxicity; remark: listed apart in the source;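 on HepSE cirrhosis: cirrhosis hepatic side effect score taken from the DILIps (drug-induced liver injury prediction) training set; call rule not given here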;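 on HepSE elevated liver function tests: hepatic side effect score for raised liver function tests, as recorded in the DILIps training set used for predicting drug-induced liver injury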;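 on HepSE hepatic necrosis: score of hepatic side effects for hepatic necrosis, drawn from the training data of DILIps, a prediction system for drug-induced liver injury; call rule not given here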;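 on HepSE jaundice: Jaundice-related hepatic side-effect score drawn from the training data of the DILIps (drug-induced liver injury prediction system); call rule not given here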; on HepSE liver disease: call rule not given here;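 on HepSE liver fatty: hepatic side effect score for fatty liver, taken from the DILIps training set for predicting drug-induced liver injury; call rule not given here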
Hepatotoxicity [3] = tested on: Hepatotoxicity; remark: listed apart in the source;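 on HepSE cirrhosis: cirrhosis hepatic side effect score taken from the DILIps (drug-induced liver injury prediction) training set; call rule not given here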;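 on HepSE elevated liver function tests: hepatic side effect score for raised liver function tests, as recorded in the DILIps training set used for predicting drug-induced liver injury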;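 on HepSE hepatic necrosis: score of hepatic side effects for hepatic necrosis, drawn from the training data of DILIps, a prediction system for drug-induced liver injury; call rule not given here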;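 on HepSE jaundice: Jaundice-related hepatic side-effect score drawn from the training data of the DILIps (drug-induced liver injury prediction system); call rule not given here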; on HepSE liver disease: call rule not given here;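 on HepSE liver fatty: hepatic side effect score for fatty liver, taken from the DILIps training set for predicting drug-induced liver injury; call rule not given here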
Hepatotoxicity [4] = tested on: Hepatotoxicity; remark: listed apart in the source;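 on HepSE cirrhosis: cirrhosis hepatic side effect score taken from the DILIps (drug-induced liver injury prediction) training set; call rule not given here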;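 on HepSE elevated liver function tests: hepatic side effect score for raised liver function tests, as recorded in the DILIps training set used for predicting drug-induced liver injury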;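 on HepSE hepatic necrosis: score of hepatic side effects for hepatic necrosis, drawn from the training data of DILIps, a prediction system for drug-induced liver injury; call rule not given here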;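 on HepSE jaundice: Jaundice-related hepatic side-effect score drawn from the training data of the DILIps (drug-induced liver injury prediction system); call rule not given here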; on HepSE liver disease: call rule not given here;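 on HepSE liver fatty: hepatic side effect score for fatty liver, taken from the DILIps training set for predicting drug-induced liver injury; call rule not given here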
Hepatotoxicity [5] = tested on: Hepatotoxicity; remark: listed apart in the source; on HepSE liver disease: call rule not given here
Hepatotoxicity [6] = tested on: Hepatotoxicity; remark: listed apart in the source; on HepSE liver disease: call rule not given here
Hepatotoxicity [7] = tested on: Hepatotoxicity; remark: listed apart in the source
Hepatotoxicity [8] = tested on: Hepatotoxicity; remark: listed apart in the source
Hepatotoxicity [9] = tested on: Hepatotoxicity; remark: listed apart in the source
Hepatotoxicity [10] = tested on: Hepatotoxicity; remark: listed apart in the source
Hepatotoxicity [11] = tested on: Hepatotoxicity; remark: listed apart in the source
Hepatotoxicity [12] = tested on: Hepatotoxicity; remark: listed apart in the source
Hepatotoxicity [13] = tested on: Hepatotoxicity; remark: listed apart in the source
Hepatotoxicity [14] = tested on: Hepatotoxicity; remark: listed apart in the source

Molecule	HepSE_liver fatty (Hepatotoxicity [1])	HepSE_elevated liver function tests (Hepatotoxicity [2])	HepSE_jaundice (Hepatotoxicity [3])	HepSE_cirrhosis (Hepatotoxicity [4])	HepSE_hepatic necrosis (Hepatotoxicity [5])	HepSE_liver disease (Hepatotoxicity [6])	HepSE_liver function tests abnormal (Hepatotoxicity [7])	HepSE_hepatitis (Hepatotoxicity [8])	HepSE_cholelithiasis (Hepatotoxicity [9])	HepSE_bilirubinemia (Hepatotoxicity [10])	HepSE_hepatic failure (Hepatotoxicity [11])	HepSE_cholecystitis (Hepatotoxicity [12])	HepSE_Combined Scores (Hepatotoxicity [13])	HepSE_hepatomegaly (Hepatotoxicity [14])	other results
CC(C)(O/N=C(\C(=O)N[C@@H]1C(=O)N2C(C(=O)[O-])=C(C[n+]3ccccc3)CS[C@H]12)c1csc(N)n1)C(=O)O [CEFTAZIDIME]	0	0	1	0	0	0	0	0	0	1	0	0	2	0	–
NC1=NCC2c3ccccc3Cc3ccccc3N12 (configuration not stated) [EPINASTINE]	–	–	–	–	–	–	–	–	–	–	–	–	–	–	HepSE_liver fatty (Hepatotoxicity [1]; Liver): 0; HepSE_elevated liver function tests (Hepatotoxicity [2]; Liver): 0; HepSE_jaundice (Hepatotoxicity [3]; Liver): 0; HepSE_cirrhosis (Hepatotoxicity [4]; Liver): 0; HepSE_hepatic necrosis (Hepatotoxicity [5]; Liver): 0; HepSE_liver disease (Hepatotoxicity [6]; Liver): 0; HepSE_liver function tests abnormal (Hepatotoxicity [7]; Liver): 0; HepSE_hepatitis (Hepatotoxicity [8]; Liver): 0; HepSE_cholelithiasis (Hepatotoxicity [9]; Liver): 0; HepSE_bilirubinemia (Hepatotoxicity [10]; Liver): 0; HepSE_hepatic failure (Hepatotoxicity [11]; Liver): 0; HepSE_cholecystitis (Hepatotoxicity [12]; Liver): 0; HepSE_Combined Scores (Hepatotoxicity [13]; Liver): 0; HepSE_hepatomegaly (Hepatotoxicity [14]; Liver): 0
CCOC(=O)[C@H](CCc1ccccc1)N[C@@H](C)C(=O)N1[C@H](C(=O)O)C[C@H]2CCCC[C@@H]21 [TRANDOLAPRIL]	0	0	0	0	0	0	1	1	0	0	0	0	2	0	–
CCOCCn1c(N2CCCN(C)CC2)nc2ccccc21 [EMEDASTINE]	0	0	0	0	0	0	0	0	0	0	0	0	0	0	–
O=NN(CCCl)C(=O)NC1CCCCC1 [LOMUSTINE]	0	0	0	0	0	0	0	0	0	0	0	0	0	0	–
Cc1cn([C@H]2C[C@H](N=[N+]=[N-])[C@@H](CO)O2)c(=O)[nH]c1=O [ZIDOVUDINE]	0	0	1	0	0	0	0	1	0	1	0	0	4	1	–
CN1CCN(C(=O)OC2c3nccnc3C(=O)N2c2ccc(Cl)cn2)CC1 (configuration not stated) [ZOPICLONE]	0	0	0	0	0	0	0	1	1	0	0	0	3	1	–
Cc1nnc2n1-c1ccc(Cl)cc1C(c1ccccc1Cl)=NC2 [TRIAZOLAM]	0	0	1	0	0	0	0	0	0	0	1	0	2	0	–
CO[C@H]1/C=C/O[C@@]2(C)Oc3c(C)c(O)c4c(c3C2=O)C2=NC3(CCN(CC(C)C)CC3)NC2=C(NC(=O)/C(C)=C\C=C\[C@H](C)[C@H](O)[C@@H](C)[C@@H](O)[C@@H](C)[C@H](OC(C)=O)[C@@H]1C)C4=O [RIFABUTIN]	–	–	–	–	–	–	–	–	–	–	–	–	–	–	HepSE_liver fatty (Hepatotoxicity [1]; Liver): 0; HepSE_elevated liver function tests (Hepatotoxicity [2]; Liver): 0; HepSE_jaundice (Hepatotoxicity [3]; Liver): 0; HepSE_cirrhosis (Hepatotoxicity [4]; Liver): 0; HepSE_hepatic necrosis (Hepatotoxicity [5]; Liver): 0; HepSE_liver disease (Hepatotoxicity [6]; Liver): 0; HepSE_liver function tests abnormal (Hepatotoxicity [7]; Liver): 0; HepSE_hepatitis (Hepatotoxicity [8]; Liver): 1; HepSE_cholelithiasis (Hepatotoxicity [9]; Liver): 0; HepSE_bilirubinemia (Hepatotoxicity [10]; Liver): 0; HepSE_hepatic failure (Hepatotoxicity [11]; Liver): 0; HepSE_cholecystitis (Hepatotoxicity [12]; Liver): 0; HepSE_Combined Scores (Hepatotoxicity [13]; Liver): 1; HepSE_hepatomegaly (Hepatotoxicity [14]; Liver): 0
Nc1ccn([C@@H]2CS[C@H](CO)O2)c(=O)n1 [LAMIVUDINE]	1	0	1	0	0	0	0	0	0	0	0	0	3	1	–
CCCCC(=O)N(Cc1ccc(-c2ccccc2-c2nnn[nH]2)cc1)[C@H](C(=O)O)C(C)C	0	0	0	0	0	0	0	1	0	0	0	0	1	0	–
CCn1cc(C(=O)O)c(=O)c2ccc(C)nc21 [NALIDIXIC ACID]	0	0	0	0	0	0	0	0	0	0	0	0	0	0	–
GADOFOSVESET TRISODIUM	0	0	0	0	0	0	0	0	0	0	0	0	0	0	–
